Experimental data reported in US8927579B2, “Male contraceptive” (priority 2007, dated 2015).
Structures can show the parent of a compound that is named as a salt.

What was measured:
[1] = system: longitudinal muscle of human vas deferens; assay: IC50 against contractions evoked by high K+ (120 mM) in the presence of FPL 64176, longitudinal muscle strips; conditions: contractions evoked by K+ (120 mM) in the presence of FPL 64176 (1 μM), means ± S.E.M.
Description: (§1) Human vas deferens specimens were obtained after elective vasectomies of healthy fertile men. College ethical approval and the consent of patients were obtained. The specimens were placed in ice-cold Krebs' medium, dissected-free of connective tissue/blood vessels and cut longitudinally into strips (longitudinal muscle preparations; 5-10 mm long & 1 mm wide) or transversely into rings (circular muscle preparations; 3 mm in length). The longitudinal and circular muscle preparations were then set up for tension recording (resting tension 5-7 mN) in a Perspex chamber superfused at 2 ml per min with Krebs' medium (36° C.) composed of (mM): NaCl, 118.8; NaHCO3, 25; KCl, 4.7; CaCl2.2H2O, 2.5; KH2PO4, 1.2; MgSO4.7H2O, 1.2; glucose, 11.1; ascorbic acid 0.1 and continuously gassed with 95% O2 and 5% CO2. Contractile responses were recorded via a Harvard-type force-displacement transducer. The analog signals were digitised using CIO-Das 16/Jr data acquisition software (Amplicon Liveline, Brighton, UK) and re-plotted on a microcomputer.
(§2) Tissues were equilibrated for 180 min in Krebs' medium containing inhibitors of extraneuronal and neuronal reuptake of noradrenaline, oestradiol (1 μM) and desipramine (0.1 μM) respectively, inhibitors of catechol-O-methyltransferase and monoamine oxidase, tropolone (10 μM) and iproniazid (10 μM) respectively and the β-adrenoceptor blocker, propranolol (1 μM). At the end of the equilibration period, the tissues were stimulated with noradrenaline (100 μM). […] After a contact time of 30-40 min in this medium, different experimental protocols (described below) were adopted in order to • (a) Elucidate the contractile actions of L-type Ca^2+ agonists such as FPL 64176 or Bay K 8644. In these experiments, tissues were exposed to FPL 64176 (0.1-10 μM added cumulatively) or in separate experiments Bay K 8644 (0.1-10 μM added cumulatively). • (b) Investigate the effects of various diphenylalkylamines and conventional L-type Ca^2+ antagonists (methoxyverapamil or nifedipine) on contractions evoked by high concentrations of extracellular potassium (high [K^+]o) in the presence of L-type Ca^2+ agonists, FPL 64176 (1 μM) or Bay K 8644 (1 μM). In this protocol, tissues were stimulated with high [K^+]O (10, 30 and 120 mM at 10-15 min intervals) in normal Krebs' medium, then exposed to L-type Ca^2+ agonists for 20-30 min and subsequently stimulated with high [K^+]O (10, 30 and 120 mM) in the presence of the drugs. These provided the initial responses. Following this and in the continuous presence of the L-type Ca^2+ agonists, the tissues were exposed additionally to L-type Ca^2+ antagonists (conventional or diphenylalkylamines) or drug-free vehicle medium. After contact times of 25-50 min the tissues were stimulated, first with high [K^+]O (either 30 mM or 120 mM) in order to take account of the well-documented use-dependent action of the diphenylalkylamine Ca^2+ antagonists. Following recovery from the test contraction and after a further 30-40 min, the tissues were then stimulated with high [K^+]o (10, 30 and 120 mM). This protocol is illustrated in FIGS. 3 and 4. The resulting contractions were measured (see below) and expressed as a percentage of corresponding initial responses to high [K^+]o evoked in the presence of L-type Ca^2+ agonists (i.e. before exposure to L-type Ca^2+ antagonists). […] Subsequent analysis (see below) was between contractions of drug-treated tissues and time-matched controls • (c) Determine the inhibitory potencies (IC50 values) of various diphenylalkylamines and phenothiazines and conventional L-type Ca^2+ antagonists (nifedipine and methoxyverapamil) against contractions evoked in longitudinal and circular muscle of human vas deferens by high [K^+]o (120 mM) in the presence of FPL 64176. In these experiments, tissues were stimulated with high [K^+]o (120 mM); sequentially in normal Krebs' medium and after 25-30 min exposure to the L-type Ca^2+ agonist, FPL 64176, (1 μM, Initial response). […]

[2] = system: circular muscle of human vas deferens; assay: IC50 against contractions evoked by high K+ (120 mM) in the presence of FPL 64176, circular muscle rings; conditions: contractions evoked by K+ (120 mM) in the presence of FPL 64176 (1 μM), means ± S.E.M.
Description: as §1, §2

[3] = system: longitudinal muscle of human vas deferens; assay: New molecules against contractions to high K+ (120 mM), longitudinal muscle; conditions: for IC50: Homo sapiens, contractions evoked by K+ (120 mM), preliminary data, mean, n=2-3, read-out: Functional inhibitory potencies (IC50 values), Longitudinal muscle; for relative effectiveness against longitudinal and circular muscle contractions: contractions evoked by high [K+]o; for Selectivity [(C/L)-1]: longitudinal muscle selectivity from IC50 values in circular and longitudinal muscle, K+ (120 mM)
Description: as §1, with “preparations; 5-8” for “preparations; 5-10”, “preparations; ˜3” for “preparations; 3”, “a Harvard type” for “a Harvard-type”
(§3) Tissues were equilibrated for 180 min in Krebs' medium containing inhibitors of extraneuronal and neuronal reuptake of noradrenaline, oestradiol (1 μM) and desipramine (0.1 μM) respectively, inhibitors of catechol-O-methyltransferase and monoamine oxidase, tropolone (10 μM) and iproniazid (10 μM) respectively and the β-adrenoceptor blocker, propranolol (1 μM). At the end of the equilibration period, the tissues were stimulated with noradrenaline (100 μM). […] After 40-45 min in this medium the tissues were stimulated with high [K^+]O (120 mM, Initial response). This was followed by exposure to cumulative concentrations of the new molecules {NIBA(1)XC1, NIBA(14)XN10, NIBA(6)XN3, NIBA(2)XC2, NIBA(53)XN16} or to Krebs' medium containing drug vehicles (time-matched controls). After contact times of 40-60 min at each drug concentration, the tissues were stimulated with high [K^+]o (120 mM). The resulting contractions were measured using computer software developed in-house to measure the total response (i.e. rhythmic activity plus tonic contraction). Contractions obtained in the presence of the new drug molecules were expressed as a percentage of the initial contraction evoked by high [K^+]o (120 mM) before exposure to the drugs.

[4] = system: circular muscle of human vas deferens; assay: New molecules against contractions to high K+ (120 mM), circular muscle; conditions: contractions evoked by K+ (120 mM), preliminary data, mean, n=2-3, read-out: Functional inhibitory potencies (IC50 values), Circular muscle
Description: as §1, with “preparations; 5-8” for “preparations; 5-10”, “preparations; ˜3” for “preparations; 3”, “a Harvard type” for “a Harvard-type”
as §3

[5] = system: longitudinal muscle of human vas deferens; assay: Inhibition at fixed concentration of contractions evoked by high K+ in the presence of FPL 64176, longitudinal muscle; conditions: [K+]o 120 mM in the presence of FPL 64176; drug 1.0 μM
Description: as §1
Tissues were equilibrated for 180 min in Krebs' medium containing inhibitors of extraneuronal and neuronal reuptake of noradrenaline, oestradiol (1 μM) and desipramine (0.1 μM) respectively, inhibitors of catechol-O-methyltransferase and monoamine oxidase, tropolone (10 μM) and iproniazid (10 μM) respectively and the β-adrenoceptor blocker, propranolol (1 μM). At the end of the equilibration period, the tissues were stimulated with noradrenaline (100 μM). […] After a contact time of 30-40 min in this medium, different experimental protocols (described below) were adopted in order to • (a) Elucidate the contractile actions of L-type Ca^2+ agonists such as FPL 64176 or Bay K 8644. In these experiments, tissues were exposed to FPL 64176 (0.1-10 μM added cumulatively) or in separate experiments Bay K 8644 (0.1-10 μM added cumulatively). • (b) Investigate the effects of various diphenylalkylamines and conventional L-type Ca^2+ antagonists (methoxyverapamil or nifedipine) on contractions evoked by high concentrations of extracellular potassium (high [K^+]o) in the presence of L-type Ca^2+ agonists, FPL 64176 (1 μM) or Bay K 8644 (1 μM). In this protocol, tissues were stimulated with high [K^+]O (10, 30 and 120 mM at 10-15 min intervals) in normal Krebs' medium, then exposed to L-type Ca^2+ agonists for 20-30 min and subsequently stimulated with high [K^+]O (10, 30 and 120 mM) in the presence of the drugs. These provided the initial responses. […] The resulting contractions were measured (see below) and expressed as a percentage of corresponding initial responses to high [K^+]o evoked in the presence of L-type Ca^2+ agonists (i.e. before exposure to L-type Ca^2+ antagonists). […]

[6] = system: circular muscle of human vas deferens; assay: Inhibition at fixed concentration of contractions evoked by high K+ in the presence of FPL 64176, circular muscle; conditions: [K+]o 120 mM in the presence of FPL 64176; drug 1.0 μM
Description: as §1
Tissues were equilibrated for 180 min in Krebs' medium containing inhibitors of extraneuronal and neuronal reuptake of noradrenaline, oestradiol (1 μM) and desipramine (0.1 μM) respectively, inhibitors of catechol-O-methyltransferase and monoamine oxidase, tropolone (10 μM) and iproniazid (10 μM) respectively and the β-adrenoceptor blocker, propranolol (1 μM). At the end of the equilibration period, the tissues were stimulated with noradrenaline (100 μM). […] After a contact time of 30-40 min in this medium, different experimental protocols (described below) were adopted in order to • (a) Elucidate the contractile actions of L-type Ca^2+ agonists such as FPL 64176 or Bay K 8644. In these experiments, tissues were exposed to FPL 64176 (0.1-10 μM added cumulatively) or in separate experiments Bay K 8644 (0.1-10 μM added cumulatively). • (b) Investigate the effects of various diphenylalkylamines and conventional L-type Ca^2+ antagonists (methoxyverapamil or nifedipine) on contractions evoked by high concentrations of extracellular potassium (high [K^+]o) in the presence of L-type Ca^2+ agonists, FPL 64176 (1 μM) or Bay K 8644 (1 μM). In this protocol, tissues were stimulated with high [K^+]O (10, 30 and 120 mM at 10-15 min intervals) in normal Krebs' medium, then exposed to L-type Ca^2+ agonists for 20-30 min and subsequently stimulated with high [K^+]O (10, 30 and 120 mM) in the presence of the drugs. These provided the initial responses. Following this and in the continuous presence of the L-type Ca^2+ agonists, the tissues were exposed additionally to L-type Ca^2+ antagonists (conventional or diphenylalkylamines) or drug-free vehicle medium. After contact times of 25-50 min the tissues were stimulated, first with high [K^+]O (either 30 mM or 120 mM) in order to take account of the well-documented use-dependent action of the diphenylalkylamine Ca^2+ antagonists. Following recovery from the test contraction and after a further 30-40 min, the tissues were then stimulated with high [K^+]o (10, 30 and 120 mM). This protocol is illustrated in FIGS. 3 and 4. The resulting contractions were measured (see below) and expressed as a percentage of corresponding initial responses to high [K^+]o evoked in the presence of L-type Ca^2+ agonists (i.e. before exposure to L-type Ca^2+ antagonists). […]

[7] = system: sperm emission in patients; conditions: clinical studies; cited from earlier work
[8] = system: longitudinal muscle of human vas deferens; assay: Contractile actions of L-type Ca2+ agonists, longitudinal muscle; conditions: for contractions on second exposure to [K+]o, percentage of corresponding initial responses, longitudinal muscle: [K+]o 30 mM & 120 mM in the continuous presence of agonist 1.0 μM; for response of longitudinal muscle to higher concentration of L-type Ca2+ agonist: agonist 10 μM; for response of longitudinal muscle to brief exposure to L-type Ca2+ agonist: agonist 0.1-3 μM
Description: as §1, §2

[9] = system: circular muscle of human vas deferens; assay: Contractile actions of L-type Ca2+ agonists, circular muscle; conditions: for contractions on second exposure to [K+]o, percentage of corresponding initial responses, circular muscle: [K+]o 30 mM & 120 mM in the continuous presence of agonist 1.0 μM; for response of circular muscle to higher concentration of L-type Ca2+ agonist: agonist 10 μM; for response of circular muscle to brief exposure to L-type Ca2+ agonist: agonist 0.1-3 μM
Description: as §1, §2

CN(C)CCCN1c2ccccc2Sc2ccc(Cl)cc21 [Chlorpromazine, chlorpromazine hydrochloride]
IC50 ([1]; Homo sapiens): 12.4 ± 2.9 µM | IC50 ([2]; Homo sapiens): 18.3 ± 6 µM

CC(NCCN(c1ccccc1)c1ccccc1)c1ccccc1 (stereo not shown) [NIBA(14)XN10]
IC50 [3]: 15 µM | relative effectiveness against longitudinal and circular muscle contractions [3]: more effective against longitudinal than circular muscle contractions | Selectivity [(C/L)-1] [3]: 5.1 | IC50 [4]: 91 µM

CN1CCCCC1CNCCC(c1ccccc1)c1ccccc1 (stereo not shown) [NIBA(1)XC1]
IC50 [3]: 3.02 µM | relative effectiveness against longitudinal and circular muscle contractions [3]: more effective against longitudinal than circular muscle contractions | Selectivity [(C/L)-1] [3]: 7.01 | IC50 [4]: 24.2 µM

COCC(=O)O[C@]1(CCN(C)CCCc2nc3ccccc3[nH]2)CCc2cc(F)ccc2[C@@H]1C(C)C [Mibefradil]
IC50 ([1]; Homo sapiens): 1.1 ± 0.2 µM | IC50 ([2]; Homo sapiens): 2.4 ± 0.9 µM

(−)-methoxyverapamil hydrochloride
IC50 [1]: 0.016 ± 0.0009 µM | IC50 [2]: 0.0181 ± 0.0038 µM | inhibition of longitudinal muscle contractions [5]: 93-98% | inhibition of circular muscle contractions [6]: 93-98%

CN1CCN(CCCN2c3ccccc3Sc3ccc(C(F)(F)F)cc32)CC1 [Trifluoperazine, trifluoperazine dihydrochloride]
IC50 ([1]; Homo sapiens): 20.7 ± 5.4 µM | IC50 ([2]; Homo sapiens): 10.2 ± 3 µM | effect on sperm emission (contraceptive side effect) [7]: lack the contraceptive side-effect

COC(=O)c1c(C)[nH]c(C)c1C(=O)c1ccccc1Cc1ccccc1 [FPL 64176, 2,5-dimethyl-4-[2-(phenylmethyl)benzoyl]-H-pyrrole-3-carboxylic acid methyl ester]
contractions on second exposure to [K+]o, percentage of corresponding initial responses, longitudinal muscle [8]: 160-181% | response of longitudinal muscle to higher concentration of L-type Ca2+ agonist [8]: rhythmic contractility | response of longitudinal muscle to brief exposure to L-type Ca2+ agonist [8]: quiescent | contractions on second exposure to [K+]o, percentage of corresponding initial responses, circular muscle [9]: 270-300% | response of circular muscle to higher concentration of L-type Ca2+ agonist [9]: rhythmic contractility | response of circular muscle to brief exposure to L-type Ca2+ agonist [9]: quiescent

COC(=O)C1=C(C)NC(C)=C([N+](=O)[O-])[C@H]1c1ccccc1C(F)(F)F [Bay K 8644]
contractions on second exposure to [K+]o, percentage of corresponding initial responses, longitudinal muscle [8]: ~92% | response of longitudinal muscle to higher concentration of L-type Ca2+ agonist [8]: rhythmic contractility | response of longitudinal muscle to brief exposure to L-type Ca2+ agonist [8]: unresponsive | contractions on second exposure to [K+]o, percentage of corresponding initial responses, circular muscle [9]: 86-92% | response of circular muscle to higher concentration of L-type Ca2+ agonist [9]: rhythmic contractility | response of circular muscle to brief exposure to L-type Ca2+ agonist [9]: unresponsive
